Experimental data reported in BindingDB's records for patent US9388210 (Washington University, 2016).

Biological target: Gamma-aminobutyric acid receptor subunit alpha-1/beta-2/gamma-2 (Rattus norvegicus, UniProt P18508+P62813+P63138)
Experiment: [35S]TBPS Binding Assay
Settings: pH 7.4; 25 °C
Procedure: Briefly, aliquots of membrane solution (0.5 mg/mL final protein concentration in assay) were incubated with 5 μM GABA, 2 nM [35S]TBPS (45−120 Ci/mmol), and 5 μL aliquots of steroid in DMSO solution (final assay concentrations ranged from 1 nM to 10 μM), and brought to a final volume of 1 mL with 200 mM NaCl, 50 mM potassium phosphate buffer, pH 7.4. […] Assay tubes were incubated for 2 h at room temperature.

Sequence of Gamma-aminobutyric acid receptor subunit alpha-1/beta-2/gamma-2 (P62813 whole entry): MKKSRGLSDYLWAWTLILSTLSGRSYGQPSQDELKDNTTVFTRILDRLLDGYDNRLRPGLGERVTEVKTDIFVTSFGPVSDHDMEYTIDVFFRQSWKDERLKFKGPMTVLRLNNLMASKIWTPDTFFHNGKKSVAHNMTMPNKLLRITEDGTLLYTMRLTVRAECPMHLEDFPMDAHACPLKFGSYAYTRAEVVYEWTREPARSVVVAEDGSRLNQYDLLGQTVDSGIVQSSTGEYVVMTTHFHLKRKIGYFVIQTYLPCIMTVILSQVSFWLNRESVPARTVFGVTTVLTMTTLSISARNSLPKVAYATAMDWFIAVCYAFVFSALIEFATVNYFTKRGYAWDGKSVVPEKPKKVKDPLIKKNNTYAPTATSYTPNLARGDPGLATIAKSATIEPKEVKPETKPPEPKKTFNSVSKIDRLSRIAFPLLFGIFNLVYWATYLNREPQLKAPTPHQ
Sequence of Gamma-aminobutyric acid receptor subunit alpha-1/beta-2/gamma-2 (P63138 whole entry): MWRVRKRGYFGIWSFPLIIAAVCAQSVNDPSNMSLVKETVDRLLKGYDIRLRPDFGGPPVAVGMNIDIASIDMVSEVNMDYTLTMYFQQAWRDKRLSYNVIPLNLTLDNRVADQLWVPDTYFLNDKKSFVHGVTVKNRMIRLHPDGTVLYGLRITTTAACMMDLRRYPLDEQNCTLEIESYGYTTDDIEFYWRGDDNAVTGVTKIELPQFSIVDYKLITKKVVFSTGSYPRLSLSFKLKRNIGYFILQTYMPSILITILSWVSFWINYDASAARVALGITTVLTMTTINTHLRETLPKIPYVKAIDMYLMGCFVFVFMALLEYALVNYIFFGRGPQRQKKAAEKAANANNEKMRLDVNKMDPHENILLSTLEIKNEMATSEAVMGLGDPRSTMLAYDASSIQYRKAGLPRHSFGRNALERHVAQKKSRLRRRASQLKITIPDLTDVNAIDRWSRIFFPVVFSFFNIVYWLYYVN
Sequence of Gamma-aminobutyric acid receptor subunit alpha-1/beta-2/gamma-2 (P18508 whole entry): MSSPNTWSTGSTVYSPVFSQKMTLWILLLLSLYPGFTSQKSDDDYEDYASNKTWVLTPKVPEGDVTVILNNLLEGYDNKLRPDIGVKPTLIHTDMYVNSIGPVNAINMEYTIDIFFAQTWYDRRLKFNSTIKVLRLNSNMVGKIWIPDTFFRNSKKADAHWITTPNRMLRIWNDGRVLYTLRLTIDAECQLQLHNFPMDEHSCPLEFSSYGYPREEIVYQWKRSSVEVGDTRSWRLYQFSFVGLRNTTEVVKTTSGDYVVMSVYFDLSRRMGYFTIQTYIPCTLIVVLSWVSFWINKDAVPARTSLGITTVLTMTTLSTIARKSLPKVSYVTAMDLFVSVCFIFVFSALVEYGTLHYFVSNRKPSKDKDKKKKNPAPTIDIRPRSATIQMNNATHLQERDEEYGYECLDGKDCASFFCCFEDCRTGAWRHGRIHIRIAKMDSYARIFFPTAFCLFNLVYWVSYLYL

Row | SMILES | IC50
1 | C[C@]12CC[C@@H](O)C[C@@H]1CC[C@H]1[C@@H]3CC[C@H](C=O)[C@@]3(C)CC(=O)[C@@H]12 [US9388210, 5b] | 770 nM
2 | C[C@]12CC[C@@H](O)C[C@@H]1CC[C@@H]1[C@@H]2C(=O)C[C@]2(C)C(C=O)=CC[C@@H]12 [US9388210, 5a] | 997 nM
